{"source": "paper PMC6627374", "about": "“Effects of the Pentapeptide P33 on Memory and Synaptic Plasticity in APP/PS1 Transgenic Mice: A Novel Mechanism Presenting the Protein Fe65 as a Target” (International Journal of Molecular Sciences, 2019)", "target": "T1, Fe65-WW domain (WW domain of Fe65) (Homo sapiens, UniProt O00213)", "T1 construct": "made in house; host or cells: chemical solid-phase peptide synthesis (Fmoc, Rink Amide AM resin); no expression host", "T1 sequence (O00213 253-285 limits assumed)": "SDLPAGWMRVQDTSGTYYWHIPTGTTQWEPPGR", "experiment": "ITC binding to Fe65-WW", "parameters": "species or system human and mouse (WW domain identical)", "details": "310 K, PBS pH 7.4, Fe65-WW 83.5 μM in cell, PPPPP 1.056 mM in syringe (control)", "protocol": "Synthesis of acetyl-Fe65-WW, acetyl-Pin1-WW, and the control PPPPP (structures involved in Figure 2) was carried out on a Rink Amide AM (0.3 mmol∙g^−1) resin using Fmoc chemistry and activation with HATU in the presence of DIPEA. Cleavage was achieved by a treatment with TFA/H2O/triisopropylsilane/1,4-dithio-DL-threitol/phenol (90:5:3:1:1) at room temperature (RT). TFA was removed in vacuo, the peptides were then precipitated using cold, dry diethyl-ether, dissolved in ACN/H2O and lyophilized.\nIsothermal titrations were performed using a Microcal VP-ITC (Malvern Instruments, Malvern, UK) microcalorimeter. Binding experiments were carried out in degassed phosphate-buffered saline (PBS) at pH 7.4. The concentrations of Fe65-WW and Pin1-WW were normalized for the peptide contents. In one titration experiment, 10-μL portions of the ligand-containing solution (P33 or PPPPP) were injected from a computer-controlled 300-μL microsyringe at intervals of 300 s into the solution of the WW domain (Fe65-WW or Pin1-WW), dissolved in the same buffer as for the ligand. The rev of the microsyringe was set to 307 rpm. Measurements were repeated twice at 310 K. The starting concentrations of Fe65-WW and Pin1-WW in the cell were 83.5 and 81.4 μM, respectively, and the concentrations of the stock solutions containing P33 or PPPPP in the syringe were 1.006 and 1.056 mM, respectively. Control experiments were performed by injecting P33 or PPPPP into the cell containing plain buffer without the WW domain, with results achieved via subtracting the dilution heats from those measured in the presence of the WW domain.", "data": [{"substance": "PPPPP [control pentapeptide PPPPP, reference compound]", "values": [{"measurement": "binding to Fe65-WW (in words)", "value": "no binding between the Fe65-WW and the pentapeptide could be observed"}]}]}
